Experiment: Bolus i.v. injection in normal conscious rats: plasma PTH and ionized calcium levels
Assay type: in vivo, male Sprague-Dawley rats
Method: FIG. 1 is a graph which depicts the effect of bolus i.v. injection of the compound of Example 9 on plasma PTH levels in normal rats.
5-Ethyl-3-[2-(2-fluoro-phenyl)-ethyl]-2-(2-hydroxy-phenyl)-6-methyl-3H-pyrimidin-4-one (1 or 3 μmol/kg) or vehicle was administered by intravenous injection over about 15 seconds to normal conscious male Sprague-Dawley rats with chronic indwelling arterial and venous catheters. Arterial blood samples were collected at 30 min and immediately before, and at 1, 5, 10, and 30 min after the start of the injection for measurement of the levels of parathyroid hormone (PTH) and ionized calcium (Ca^2+) in plasma. PTH was measured using a specific rat PTH (1-84) ELISA (Immutopics, San Clemente, Calif.). […] Plasma PTH levels had returned to pre-dose levels by 10 min after the injection (FIG. 1).

CCc1c(C)nc(-c2ccccc2O)n(CCc2ccccc2F)c1=O [Example 9, 5-Ethyl-3-[2-(2-fluoro-phenyl)-ethyl]-2-(2-hydroxy-phenyl)-6-methyl-3H-pyrimidin-4-one]
effect on plasma PTH levels (1 or 3 μmol/kg i.v. over about 15 seconds, normal conscious male Sprague-Dawley rats, rat PTH (1-84) ELISA, FIG. 1): rapid, but transient dose-related increase | time after injection at which plasma PTH levels were maximal (1 or 3 μmol/kg i.v., rats): 1 min | time after injection by which plasma PTH levels had returned to pre-dose levels (1 or 3 μmol/kg i.v., rats): ≤ 10 min | changes in plasma Ca2+ levels (1 or 3 μmol/kg i.v., rats, samples up to 30 min after injection (not shown)): no consistent changes
